Experiments:
[1] = system: HCV RNA replicon in cell line ET (luc-ubi-neo/ET), human Huh7 hepatoma; experiment: Luciferase reporter replicon assay (Example 5, Method C); type: cell-based; details: Hepatitis C virus, Huh-7, 72 hr
Procedure: Method C: Luciferase Reporter Assay Protocol
The compounds were assayed to evaluate the antiviral activity and cytotoxicity of compounds using replicon-derived luciferase activity. This assay used the cell line ET (luc-ubi-neo/ET), which is a human Huh7 hepatoma cell line that contains an HCV RNA replicon with a stable luciferase (Luc) reporter and three cell culture-adaptive mutations. The ET cell line was grown in a 5% CO2 incubator at 37° C. in Dulbecco's modified essential media (DMEM), supplemented with 2 mM L-glutamine (“1%”), nonessential amino acids, 100 U of penicillin/mL, 100 μg of streptomycin/mL (“1%”), 10% fetal bovine serum and 400 μg/mL G418 (Geneticin; Invitrogen).
All cell culture reagents were obtained from Invitrogen (Carlsbad). Cells were trypsinized (1% trypsin:EDTA) and plated out at 5×10^3 cells/well in white 96-well assay plates (Costar) dedicated to cell number (cytotoxicity) or antiviral activity assessments. Test compounds were added at six 3-fold serial dilutions each and the assay was run in DMEM, 5% FBS, 1% pen-strep, 1% glutamine, 1% non essential amino acid. Human interferon alpha-2b (PBL Biolabs, New Brunswick, N.J.) was included in each run as a positive control compound. Cells were processed 72 hr post test compound addition when the cells were still subconfluent. Antiviral activity was measured by analyzing replicon-derived luciferase activity using the Steady-Glo Luciferase Assay System (Promega, Madison, Wis.) according to manufacturer's instruction. The number of cells in each well was determined by Cell Titer Blue Assay (Promega). Compound profile was derived by calculating applicable EC50 (effective concentration inhibiting virus replication by 50%), EC90 (effective concentration inhibiting virus replication by 90%), IC50 (concentration decreasing cell viability by 50%) and SI50 (selective index: […]) values.

[2] = molecular target: T1, A156T mutant of the HCV NS3/4A 1b protease enzyme (Hepatitis C virus genotype 1b, UniProt P26663, A1182T); experiment: HCV protease FRET assay, A156T mutant; type: biochemical; details: read-out: Inhibition, HCV A156T (IC50)
T1 construct: 10× stocks of NS3/4A protease enzyme from Bioenza; purchased Bioenza (Mountain View, Calif.)
Procedure: (§1) HCV Protease FRET Assay for Mutated NS3/4A 1b Enzymes
(§2) The protocol is a modified FRET-based assay (v—02) from In Vitro Resistance Studies of HCV Serine Protease Inhibitors, 2004, JBC, vol. 279, No. 17, pp 17508-17514. Inherent potency of compounds was assessed against A156S, A156T, D168A, and D168V mutants of the HCV NS3/4A 1b protease enzyme as follows:
(§3) Assay buffer: 2% CHAPS, 50 mM Tris pH 7.5, 50% glycerol, 2 μM M-2235 (Bachem) substrate. In a 50 μl reaction, add 49 μl assay buffer, 1 μl (1 U) HCV serine protease (Bioenza). Incubate 20 minutes at room temperature. The plate was read at either 350/460 nm (excitation/emission) on a fluorescent micro-plate reader or monitored at one-minute intervals to achieve the kinetic curve.
10× stocks of NS3/4A protease enzyme from Bioenza (Mountain View, Calif.) and 1.13×5-FAM/QXL™520 FRET peptide substrate from Anaspec (San Jose, Calif.) were prepared in 50 mM HEPES, pH 7.8, 100 mM NaCl, 5 mM DTT and 20% glycerol. […] Protease reactions were started with the addition of 45 μL of the FRET substrate and monitored for 120 minutes at λex487/λem514 through Quad^4 monochromoters in a Synergy^4 plate reader from BioTek (Winooski, Vt.). […]

[3] = molecular target: T2, D168V mutant of the HCV NS3/4A 1b protease enzyme (Hepatitis C virus genotype 1b, UniProt P26663, D1194V); experiment: HCV protease FRET assay, D168V mutant; type: biochemical; details: read-out: Inhibition, HCV D168V (IC50)
T2 construct: 10× stocks of NS3/4A protease enzyme from Bioenza; purchased Bioenza (Mountain View, Calif.)
Procedure: as §1, §2, §3
10× stocks of NS3/4A protease enzyme from Bioenza (Mountain View, Calif.) and 1.13×5-FAM/QXL™520 FRET peptide substrate from Anaspec (San Jose, Calif.) were prepared in 50 mM HEPES, pH 7.8, 100 mM NaCl, 5 mM DTT and 20% glycerol. 5 μL of each enzyme were pre-incubated in a Corning (#3573) 384-well, black, non-treated microtiter plate (Corning, N.Y.) for 30 min at 25° C. with a 0.5 μL volume of 50% DMSO and serially diluted compounds prepared in 50% DMSO. Protease reactions were started with the addition of 45 μL of the FRET substrate and monitored for 120 minutes at λex487/λem514 through Quad^4 monochromoters in a Synergy^4 plate reader from BioTek (Winooski, Vt.). […] Initial velocity (0 minutes to 30+ minutes) from each reaction was determined from the slope of a plot of relative fluorescence units vs time (minutes) and then plotted against inhibitor concentration to estimate IC50 from log[Inhibitor] vs Response, Variable Slope model in GraphPad Prism from GraphPad Software (San Diego, Calif.). […]
The following protocol was used to generate “apparent” IC50 (IC50—APP)) values as depicted in Table 3, below. […] Protease reactions were immediately started after enzyme addition with the addition of 45 μL of the FRET substrate and monitored for 60-90 minutes at λex485/λem520 in a Synergy^4 plate reader from BioTek (Winooski, Vt.). […]

Compound	EC90 ([1]; EC90, read-out: Inhibition, Replicon, EC90 value)	EC50 ([1]; read-out: Inhibition, Replicon, EC50 value)	IC50 [2]	IC50 [3]	IC90 ([1]; IC90, read-out: Inhibition, Replicon, IC90 value, Method C)	IC50 ([1]; read-out: Inhibition, Replicon (IC50), Method C)
CC(C)(C)OC(=O)NC1CN(C(=O)CCl)CCC/C=C\[C@@H]2C[C@@]2(C(=O)NS(=O)(=O)C2CC2)NC(=O)[C@@H]2C[C@@H](OC(=O)N3Cc4cccc(F)c4C3)CN2C1=O (some centres unmarked) [Compound 8]	100 to 1000 nM	10 to 100 nM				
C=C[C@@H]1C[C@]1(NC(=O)[C@@H]1C[C@@H](Oc2cc(-c3ccccc3)nc3cc(OC)ccc23)CN1C(=O)C(NC(=O)OC(C)(C)C)[C@@H](C)OC(=O)/C=C/C)C(=O)NS(=O)(=O)C1CC1 (some centres unmarked) [Compound 3]			100 to 1000 nM	1000 to 10000 nM		
C=CC(=O)N(C)C[C@H](NC(=O)OC(C)(C)C)C(=O)N1C[C@H](OC(=O)N2Cc3cccc(F)c3C2)C[C@H]1C(=O)N[C@]1(C(=O)NS(=O)(=O)C2CC2)C[C@H]1C=C [Compound 4]			< 10 nM	10 to 100 nM	10 to 100 nM	< 10 nM

— US8603737B2, “Methods for identifying HCV protease inhibitors” (priority 2008, dated 2013)
